Experimental data as given in patent publication US8399417B2, “Food” (Ajinomoto Co., Inc., priority 2007, dated 2013).

Columns and labels:
Format in all cases: in vivo, human
[1] = Fat-like richness and smoothness imparted to low-fat yogurt, quantitative sensory evaluation test; conditions: Table 10; for Fat-like richness / Smoothness: n=12, control 0, strong 3, very strong 5 points
Method: (§1) The quantitative sensory evaluation test was performed as follows. Each of γ-Glu-Val-Gly and cinacalcet was mixed with commercially-available low-fat yogurt (non-fat milk solids content: 10.0%, milk fat content: 1.0%) at a concentration of 0.00001 to 1 g/dl, and the intensity of imparting fat-like richness was measured.
It should be noted that after each sample was dissolved in low-fat yogurt, and a sample, the pH of which was lowered, was adjusted with NaOH so that the pH might be ±0.2 with respect to the pH of the […] free of a sample.
(§2) The sensory score for fat-like richness and smoothness was defined as follows: control (free of sample): 0 point; strong: 3 points; and very strong: 5 points. Then, the test was performed with n=12.

[2] = Fat-like richness and smoothness imparted to low-calorie mayonnaise, quantitative sensory evaluation test; conditions: for Taste profile / Fat-like richness / Smoothness: Table 9; for Fat-like richness / Smoothness: control 0, strong 3, very strong 5 points
Method: In the same manner as that in Example 1 except that commercially-available low-calorie mayonnaise (having a fat content reduced by 50% compared with a normal product) was used instead of low-fat milk, each peptide was measured for its fat-like richness-imparting intensity.
In the same manner as that in Example 2, each sample was measured for its intensity of imparting fat-like richness.

[3] = Fat-like richness and smoothness imparted to low-fat milk, quantitative sensory evaluation test; conditions: for Taste profile / Fat-like richness / Smoothness: Table 8; for Fat-like richness / Smoothness: n=12, control 0, strong 3, very strong 5 points
Method: as §1, with “γ-Glu-Cys-Gly (glutathione), γ-Glu-Val-Gly,” for “γ-Glu-Val-Gly”, “γ-Glu-Abu-Gly” for “cinacalcet”, “milk” for “yogurt”, “8.6% or more,” for “10.0%,”, “1.5%)” for “1.0%)”
It should be noted that each peptide was dissolved in low-fat milk, and then a sample, the pH of which was lowered, was adjusted with NaOH so that the pH might be ±0.2 with respect to the pH of the low-fat milk free of peptide.
The sensory score for fat-like richness and smoothness was defined as follows: control (free of peptide): 0 point; strong: 3 points; and very strong: 5 points. Then, the test was performed with n=12. […] As clear from Table 6, it was confirmed that the peptide imparted fat-like richness and smoothness to low-fat milk at a lower concentration than glutathione.
as §1, with “milk” for “yogurt”, “8.6% or more,” for “10.0%,”, “1.5%)” for “1.0%)”
It should be noted that each sample was dissolved in low-fat milk, and then a sample, the pH of which was lowered, was adjusted with NaOH so that the pH might be ±0.2 with respect to the pH of the low-fat milk free of a sample.
as §2

[4] = 0.0001 g/dl in low-calorie mayonnaise
[5] = 0.001 g/dl in low-calorie mayonnaise

Q: With `C[C@@H](NCCCc1cccc(C(F)(F)F)c1)c1cccc2ccccc12` [Cinacalcet, (R)—N-(3-(3-(trifluoromethyl)phenyl)propyl)-1-(1-naphthyl)ethylamine, reference compound] as the compound, how does the Taste profile ([1]; 0.0001 g/dl in low-fat yogurt) read?
A: Lasting is present in aftertaste.

Q: And the Fat-like richness ([1]; 0.0001 g/dl in low-fat yogurt)?
A: 1.5 points

Q: What about the Smoothness ([1]; 0.0001 g/dl in low-fat yogurt) of the same compound?
A: 2.0 points

Q: What about the Fat-like richness ([1]; 0.001 g/dl in low-fat yogurt (milk fat 1.0%)) of the same compound?
A: 4.0 points

Q: And the Taste profile ([1]; 0.001 g/dl in low-fat yogurt)?
A: Lasting is present in aftertaste.

Q: And the Smoothness ([1]; 0.001 g/dl in low-fat yogurt)?
A: 4.5 points

Q: And the Taste profile [2, 4]?
A: Lasting is present in aftertaste.

Q: What about the Fat-like richness [2, 4] of the same compound?
A: 1.8 points

Q: What about the Smoothness [2, 4] of the same compound?
A: 2.5 points

Q: And the Taste profile [2, 5]?
A: Thickness and lasting

Q: And the Fat-like richness [2, 5]?
A: 4.3 points

Q: And the Smoothness [2, 5]?
A: 4.8 points

Q: What about the “concentration at which fat-like richness and smoothness are imparted, compared with γ-Glu-Val-Gly” value ([2]; low-calorie mayonnaise, conclusion from Table 9) of the same compound?
A: comparable concentration to γ-Glu-Val-Gly

Q: And the Taste profile ([3]; 0.0001 g/dl in low-fat milk)?
A: Lasting is present in aftertaste.

Q: And the Fat-like richness ([3]; 0.0001 g/dl in low-fat milk)?
A: 1.3 points

Q: And the Smoothness ([3]; 0.0001 g/dl in low-fat milk)?
A: 1.7 points

Q: And the Taste profile ([3]; 0.001 g/dl in low-fat milk)?
A: Thickness and lasting

Q: What about the Fat-like richness ([3]; 0.001 g/dl in low-fat milk) of the same compound?
A: 4.0 points

Q: And the Smoothness ([3]; 0.001 g/dl in low-fat milk)?
A: 4.2 points

Q: What about the “concentration at which fat-like richness and smoothness are imparted, compared with γ-Glu-Val-Gly” value ([3]; low-fat milk, conclusion from Table 8) of the same compound?
A: comparable concentration to γ-Glu-Val-Gly
